The record followed here is patent publication US20240050329A1, “METHODS FOR COSMETIC SKIN REMODELING” (ELC Management LLC, priority 2019, published 2024).

Several values for one entry are separate records, joined by “and”; a condition that tells them apart may be missing. Equal values may be shown once. Read-outs that look alike come from different tables or passages of the source. Where a SMILES comes first, the peptide text is derived from it.

Series [1] in a line: Solution-gel (sol-gel) transition of each peptide. The series is classed as physicochemical. As for the experimental part: In compositions, the influence of pH of 3 to 9, ionic strength of about 0 M to about 5 M salt concentration (for example, ZnCl2, NaCl etc.) via addition of any monovalent and/or divalent cation or temperature plays a critical role in preventing the self-assembly in formulation. In compositions, the pH maybe in the range of about 3 to 9. In some compositions, the amount of peptide is in a range of about 0.001% to 30% by weight and the temperature of the composition may be in a range of about 19° C. to 42° C.

Series [2] relates to existing elastin fibers. As to the kind of experiment: Temperature dependent self-assembly of ELPs in decellularized ex vivo dermises (Elastin van Gieson staining, elastin fiber density). To be noted: for Elastin fiber integrated density (FIG. 1B): 100 μg/mL, compared to PBS of the same temperature; for Elastin van Gieson staining signal (FIG. 1A): decellularized dermises submerged in 100 μg/mL peptide, five days, 4, 37 or 42° C., compared to PBS. As for the experimental part:
The generation of elastin fibers involves the self-assembly process of coacervation causing an accumulation of hydrophobic tropoelastin molecules prior to being cross-linked at lysines to generate mature elastin fibers. Elastin-like peptides (ELPs) undergo temperature-driven conformational change upon heat referred to as inverse temperature transition (ITT).
Following decellularization, the skins, here after referred to as dermises, were washed three times in PBS buffer (1X) for 2 hours each. The decellularized dermises were submerged in either PBS, 100 μg/mL Pal-VGVAPG, or Ace-IGVAPG, for five days, with daily solution changes. Three ex vivo dermises for each treatment were incubated at 4° C., 37° C., or 42° C. The decellularized dermises were fixed overnight in 10% formalin, paraffin embedded and sections at 8 μm. H&E and Elastin van Gieson staining were performed to confirm decellularization and to visualize elastin fibers, respectively. Elastin fiber density quantification was performed via thresholding the elastin fibers using NIH ImageJ software and measurements were recorded.
H&E staining confirmed that the tissues were successfully decellularized (data not shown). […] FIG. 1A indicates the representative images of Elastin van Gieson stained decellularized dermises which were incubated with Pal-VGVAPG and Ace-IGVAPG at different temperatures while concentration was kept constant (100 μg/mL). Elastin fibers are stained black at a scale bar of 50 μm.
Statistical significance of differences between means was performed using two-way ANOVA followed by Tukey's multiple comparisons test. Error bars represent standard error of the mean (SEM). All analyses were performed using Prism 8 software (GraphPad, San Diego, CA, U.S.A.).

Series [3] deals with pre-existing elastin fibers. Put plainly: Concentration driven self-assembly in ex vivo skin treated topically (Elastin van Gieson stain). To be noted: topical. As for the experimental part: Self-assembly of biomolecules is dependent on a critical self-assembly concentration, where self-assembly biomolecules remain as monomers below a critical concentration and assemble above a specific concentration threshold.
Biopsies (12-mm) were treated topically with various concentrations of Ace-IGVAPG or Pal-VGVAPG (12.5, 25, 50 μg/mL) while being maintained in DMEM containing 10% FBS and 1% penicillin/streptomycin/amphotericin B. The skins were formalin fixed, paraffin embedded, sectioned at 8 μm and stain for elastin with the Elastin van Gieson stain.

In series [4] the test system is ex vivo skin. Put plainly: pH dependent peptide self-assembly within intact ex vivo skin (click histology). To be noted: propargylglycine versions of the peptides, 0.6 mg/mL, topical, pH 4 to 9. As for the experimental part:
To aid in visualization of the effects of pH and salinity on peptide self-assembly within tissue, peptides were labeled via F-moc chemistry with propargylglycine. Biopsies (12-mm) of abdominal skin explants were isolated, maintained, as stated in example 4, and were treated topically with the propargylglycine labeled peptides ([…]), twice a day for 5 days. The propargylglycine labeled peptides included A6K, IEIK-13, KLD-12, RADA-16, IGVPAG, and VGVPAG.
To determine how pH and salinity influences peptide assembly in the skin, the propargylglycine labeled peptides were prepared at various pH or salinity pH 3 to 9 or containing a salt content of 0.1-3.0%, respectively. The skins were fixed, cryoprotected, cryosectioned (8 μm) and stored at −20° C. until Copper(I)-Catalyzed Alkyne-Azide Cycloaddition (CuAAC), or click chemistry, was performed to detect peptide assembly. Representative results are shown herein.
The sections were washed, mounted with Fluoromount-G plus DAPI, and were imaged using the Zeiss Axio Observer Z1 Fluorescence Motorized Microscope.
Click chemistry is a technique that uses two biologically inert functional groups, an alkyne and an azide, which form a triazole in the presence of Copper(I). The alkyne on the terminus of the peptide negligibly impacts the aspects of molecule that will impact the penetration of the peptide in tissue (i.e. molecular weight, log P, isoelectric point, and self-assembly) allowing for the peptide to penetrate based on its inherent properties. Once the alkyne-peptide is delivered to the tissue, the sample is fixed, and “stained” with an azido-fluorophore. […] This click histology protocol allows for the peptide of interest to be selectively detected via fluorescence microscopy in the presence of endogenous peptides and/or proteins. […]

Series [5] relates to ex vivo skin biopsies. Put plainly: Skin elasticity (percent recovery) of ex vivo skin biopsies, TA.XT Plus Texture Analyzer. The following applies: 25 μg/mL, 24 h topical treatment. The protocol:
Following 24 hours, the TA.XT Plus Texture Analyzer was used to indent ex vivo skin with a 7-mm cylindrical probe with 40% strain and a withdrawal rate of 0.1 mm/s. The TA.XT Plus software generated a curve representative of the force (g) applied to the probe by the biopsy overtime (sec) and the areas under the curve for the duration of indentation and the withdrawal time of the probe were used to calculate the percent recovery.
A purely elastic material has a percent recovery of 100%. Since skin is viscoelastic, its recovery will never be equal to a pure elastic material, ex vivo skin, for example, has a percent recovery of 25% to 35%.

Series [6] deals with skin layers. Put plainly: Triggers of self-assembly within the skin layers.

Consider `C[C@H](N)C(=O)N[C@@H](C)C(=O)N[C@@H](C)C(=O)N[C@@H](C)C(=O)N[C@@H](C)C(=O)N[C@@H](C)C(=O)N[C@@H](CCCCN)C(N)=O` [AAAAAAK, A6K] (H-AAAAAAK-NH2), for which, in series [1], the “C0 for sol-gel transition by weight of the composition (w/w)” value (from here on “C0 for sol-gel transition by weight”) is “greater than 2%”.
For the molecule `CC[C@H](C)[C@H](NC(C)=O)C(=O)NCC(=O)N[C@H](C(=O)N[C@H](C)C(=O)N1CCC[C@H]1C(=O)NCC(=O)O)C(C)C` [ACE-IGVAPG, Elastin hexapeptide] (HELM PEPTIDE1{[ac].I.G.V.[dA].P.G}$$$$V2.0), the “Elastin fiber integrated density (FIG. 1B)” value in series [2] (42° C.) is given as “significant increase”. For the same molecule, in series [2], the “Elastin van Gieson staining signal (FIG. 1A)” value was “highest increase at 37 °C”. The “Elastin intensity (Elastin van Gieson stain, FIG. 2)” value (from here on “Elastin intensity”) in series [3] (25 μg/mL) and in series [3] (50 μg/mL) was “increase” throughout. Besides, the “pH level at which peptide self-assembly was observed within the lower layers of the skin” value in series [4] is 5 and 7. For the same molecule, the “Greater recovery than non-treated samples” value in series [5] is “about 25%”. The “Percent recovery compared to non-treated controls (FIG. 6B)” value in series [5] (p=0.0056) is listed as “significantly higher”.
For the molecule `CC[C@H](C)[C@H](N)C(=O)N[C@@H](CCC(=O)O)C(=O)N[C@H](C(=O)N[C@@H](CCCCN)C(=O)N[C@H](C(=O)N[C@@H](CCC(=O)O)C(=O)N[C@H](C(=O)N[C@@H](CCCCN)C(=O)N[C@H](C(=O)N[C@@H](CCC(=O)O)C(=O)N[C@H](C(=O)N[C@@H](CCCCN)C(=O)N[C@H](C(N)=O)[C@@H](C)CC)[C@@H](C)CC)[C@@H](C)CC)[C@@H](C)CC)[C@@H](C)CC)[C@@H](C)CC` [IEIKIEIKIEIKI, IEK-13], the “Sol-gel transition pH” value in series [1] was 3. Moreover, in series [1] (sol-gel transition), the Temperature trigger result is “YES”. For the same molecule, the “C0 for sol-gel transition by weight” value in series [1] (w/w of the composition) is recorded as 2%.
`CC(C)C[C@H](NC(=O)[C@H](CC(=O)O)NC(=O)[C@H](CC(C)C)NC(=O)[C@H](CCCCN)NC(=O)[C@H](CC(C)C)NC(=O)[C@H](CC(=O)O)NC(=O)[C@H](CC(C)C)NC(=O)[C@H](CCCCN)NC(=O)[C@H](CC(C)C)NC(=O)[C@H](CC(=O)O)NC(=O)[C@H](CC(C)C)NC(=O)[C@@H](N)CCCCN)C(N)=O` [KLDLKLDLKLDL, KLD-12] (H-KLDLKLDLKLDL-NH2): the “Sol-gel transition pH” value in series [1] worked out at 5. The “C0 for sol-gel transition by weight” value in series [1] (w/w of the composition) was 2%. Also, the “pH level at which peptide self-assembly was observed within the lower layers of the skin” value in series [4] was determined as 6.
With `CCCCCCCCCCCCCCCC(=O)NCC(=O)N[C@@H](Cc1cnc[nH]1)C(=O)O` [PAL-GH, Palmityl dipeptide] (HELM PEPTIDE1{[CCCCCCCCCCCCCCCC(=O)[*:2]].G.H}$$$$V2.0), in series [1], the “C0 for sol-gel transition by weight” value is 1.25%, the Ionic strength trigger result is listed as “YES”, the “Sol-gel transition pH” value turned out to be 5 and the Temperature trigger result is listed as “YES”.
With `CCCCCCCCCCCCCCCC(=O)N[C@@H](CCCCN)C(=O)N[C@H](C(=O)N[C@H](C(=O)N[C@@H](CCCCN)C(=O)N[C@@H](CO)C(=O)O)[C@@H](C)O)[C@@H](C)O` [PAL-KTTKS, Palmitoyl pentapeptide-4] (HELM PEPTIDE1{[CCCCCCCCCCCCCCCC(=O)[*:2]].K.T.T.K.S}$$$$V2.0), the “Sol-gel transition pH” value in series [1] turned out to be 5. The Temperature trigger entry in series [1] (sol-gel transition) is listed as “YES”. For the same molecule, in series [1] (w/w of the composition), the “C0 for sol-gel transition by weight” value was found to be 0.5%. Further, in series [6], the “Concentration trigger of self-assembly within the skin layers” value is not below 0.5 % w/w, the “Temperature trigger of self-assembly within the skin layers” value stood at 37 °C and the “pH trigger of self-assembly within the skin layers” value is on record as 5.
On to `CCCCCCCCCCCCCCCC(=O)N[C@H](C(=O)NCC(=O)N[C@H](C(=O)N[C@@H](C)C(=O)N1CCC[C@H]1C(=O)NCC(=O)O)C(C)C)C(C)C` [PAL-VGVAPG, Palmitoyl hexapeptide] (HELM PEPTIDE1{[CCCCCCCCCCCCCCCC(=O)[*:2]].V.G.V.A.P.G}$$$$V2.0), for which the “Sol-gel transition pH” value in series [1] was found to be 7. Moreover, in series [1] (sol-gel transition), the Ionic strength trigger entry is on record as “YES” and the Temperature trigger result was “YES”. Further, the “C0 for sol-gel transition by weight” value in series [1] (w/w of the composition) is listed as 1%. Besides, in series [2] (37° C.), the “Elastin fiber integrated density (FIG. 1B)” value was “significant increase”. Further, in series [2] (42° C.), the “Elastin fiber integrated density (FIG. 1B)” value is given as “significant increase”. For the same molecule, the “Elastin van Gieson staining signal (FIG. 1A)” value in series [2] was “increase in signal as temperature increased”. Moreover, the “Elastin intensity” value in series [3] (12.5 μg/mL) is given as “increased”. Further, in series [3] (25 μg/mL), the “Elastin intensity” value is on record as “increased”. Also, in series [3] (50 μg/mL), the “Elastin intensity” value is “increased”. Also, the “pH level at which peptide self-assembly was observed within the lower layers of the skin” value in series [4] is 6 and 8. Moreover, in series [6], the “Concentration trigger of self-assembly within the skin layers” value is on record as more than 0.01 % w/w, the “Temperature trigger of self-assembly within the skin layers” value was 37 °C and the “pH trigger of self-assembly within the skin layers” value was found to be 7.
For `C[C@H](NC(=O)[C@H](CC(=O)O)NC(=O)[C@H](C)NC(=O)[C@H](CCCNC(=N)N)NC(=O)[C@H](C)NC(=O)[C@H](CC(=O)O)NC(=O)[C@H](C)NC(=O)[C@H](CCCNC(=N)N)NC(=O)[C@H](C)NC(=O)[C@H](CC(=O)O)NC(=O)[C@H](C)NC(=O)[C@H](CCCNC(=N)N)NC(=O)[C@H](C)NC(=O)[C@H](CC(=O)O)NC(=O)[C@H](C)NC(=O)[C@@H](N)CCCNC(=N)N)C(=O)O` [RADARADARADARADA, RADA 16], in series [1], the “Sol-gel transition pH” value came to 7. Besides, the Ionic strength trigger result in series [1] (sol-gel transition) is “YES”. In series [1] (w/w of the composition), the “C0 for sol-gel transition by weight” value worked out at 2%.
